Assay results from ChEMBL document CHEMBL1127579, “Novel, potent luteinizing hormone-releasing hormone antagonists with improved solubility in water” (1994).
Values after ≈ are worked out from the molar mass of the structure shown.

Experiments:
Type in all cases: functional
Rattus norvegicus [1] = species on record: Rattus norvegicus; test: Antiovulatory activity expressed as ratio of rats ovulated/total rats at a dose of 0.5 microg; 6/7
Rattus norvegicus [2] = species on record: Rattus norvegicus; test: Evaluated for histamine releasing activity
Rattus norvegicus [3] = species on record: Rattus norvegicus; test: Antiovulatory activity expressed as ratio of rats ovulated/total rats at a dose of 0.25 microg; 3/7
Rattus norvegicus [4] = species on record: Rattus norvegicus; test: Antiovulatory activity expressed as ratio of rats ovulated/total rats at a dose of 0.5 microg; 2/12
Rattus norvegicus [5] = species on record: Rattus norvegicus; test: Antiovulatory activity expressed as ratio of rats ovulated/total rats at a dose of 1.0 ug; 0/6
Rattus norvegicus [6] = species on record: Rattus norvegicus; test: Antiovulatory activity expressed as ratio of rats ovulated/total rats at a dose of 1.0 ug; 0/8
Rattus norvegicus [7] = species on record: Rattus norvegicus; test: Antiovulatory activity expressed as ratio of rats ovulated/total rats at a dose of 0.5 microg; 3/8
Rattus norvegicus [8] = species on record: Rattus norvegicus; test: Antiovulatory activity expressed as ratio of rats ovulated/total rats at a dose of 0.5 microg; 2/5
Rattus norvegicus [9] = species on record: Rattus norvegicus; test: Antiovulatory activity expressed as ratio of rats ovulated/total rats at a dose of 0.5 microg; 5/8
Rattus norvegicus [10] = species on record: Rattus norvegicus; test: Antiovulatory activity expressed as ratio of rats ovulated/total rats at a dose of 0.5 microg; 4/5
Rattus norvegicus [11] = species on record: Rattus norvegicus; test: Antiovulatory activity expressed as ratio of rats ovulated/total rats at a dose of 0.5 microg; 9/25
Rattus norvegicus [12] = species on record: Rattus norvegicus; test: Antiovulatory activity expressed as ratio of rats ovulated/total rats at a dose of 1.0 ug; 0/10
Rattus norvegicus [13] = species on record: Rattus norvegicus; test: Antiovulatory activity expressed as ratio of rats ovulated/total rats at a dose of 0.25 microg; 6/10
Rattus norvegicus [14] = species on record: Rattus norvegicus; test: Antiovulatory activity expressed as ratio of rats ovulated/total rats at a dose of 0.5 microg; 0/10
Rattus norvegicus [15] = species on record: Rattus norvegicus; test: Antiovulatory activity expressed as ratio of rats ovulated/total rats at a dose of 0.5 microg; 3/6
Rattus norvegicus [16] = species on record: Rattus norvegicus; test: Antiovulatory activity expressed as ratio of rats ovulated/total rats at a dose of 0.25 microg; 2/12
Rattus norvegicus [17] = species on record: Rattus norvegicus; test: Antiovulatory activity expressed as ratio of rats ovulated/total rats at a dose of 0.5 microg; 2/6

CC(=O)N[C@H](Cc1ccc2ccccc2c1)C(=O)N[C@H](Cc1ccc(Cl)cc1)C(=O)N[C@H](Cc1cccnc1)C(=O)N[C@@H](CO)C(=O)N[C@@H](CCCCNC(=O)c1nccnc1N)C(=O)N[C@H](CCCCNC(=O)c1nccnc1N)C(=O)N[C@@H](CC(C)C)C(=O)N[C@@H](CCCCNC(C)C)C(=O)N1CCC[C@H]1C(=O)N[C@H](C)C(=O)O
Ratio (Rattus norvegicus [1]): 6

CC(=O)N[C@H](Cc1ccc2ccccc2c1)C(=O)N[C@H](Cc1ccc(Cl)cc1)C(=O)N[C@H](Cc1cccnc1)C(=O)N[C@@H](CO)C(=O)N[C@@H](CCCCNC(=O)c1ccccn1)C(=O)N[C@H](CCCCNC(=O)c1ccc(N)nc1)C(=O)N[C@@H](CC(C)C)C(=O)N[C@@H](CCCCNC(C)C)C(=O)N1CCC[C@H]1C(=O)N[C@H](C)C(=O)O
ED50 (Rattus norvegicus [2]): 96 µg/mL (≈ 59.7 µM)
Ratio (Rattus norvegicus [3]): 3
Ratio (Rattus norvegicus [4]): 2
Ratio (Rattus norvegicus [5]): 0

CC(=O)N[C@H](Cc1ccc2ccccc2c1)C(=O)N[C@H](Cc1ccc(Cl)cc1)C(=O)N[C@H](Cc1cccnc1)C(=O)N[C@@H](CO)C(=O)N[C@@H](CCCCNC(=O)c1ccccn1)C(=O)N[C@H](CCCCNC(=O)c1cccnc1)C(=O)N[C@@H](CC(C)C)C(=O)N[C@@H](CCCCN)C(=O)N1CCC[C@H]1C(=O)N[C@H](C)C(=O)O
ED50 (Rattus norvegicus [2]): 39 µg/mL (≈ 25.2 µM)
Ratio (Rattus norvegicus [6]): 0
Ratio (Rattus norvegicus [7]): 3

CC(=O)N[C@H](Cc1ccc2ccccc2c1)C(=O)N[C@H](Cc1ccc(Cl)cc1)C(=O)N[C@H](Cc1cccnc1)C(=O)N[C@@H](CO)C(=O)N[C@@H](CCCCNC(=O)c1ccccn1)C(=O)N[C@H](CCCCNC(=O)c1cccnc1N)C(=O)N[C@@H](CC(C)C)C(=O)N[C@@H](CCCCNC(C)C)C(=O)N1CCC[C@H]1C(=O)N[C@H](C)C(=O)O
Ratio (Rattus norvegicus [8]): 2

CC(=O)N[C@H](Cc1ccc2ccccc2c1)C(=O)N[C@H](Cc1ccc(Cl)cc1)C(=O)N[C@H](Cc1cccnc1)C(=O)N[C@@H](CO)C(=O)N[C@@H](CCCCNC(=O)c1cccnc1)C(=O)N[C@H](CCCCNC(=O)c1ccccn1)C(=O)N[C@@H](CC(C)C)C(=O)N[C@@H](CCCCN)C(=O)N1CCC[C@H]1C(=O)N[C@H](C)C(=O)O
ED50 (Rattus norvegicus [2]): 60 µg/mL (≈ 38.7 µM)
Ratio (Rattus norvegicus [9]): 5

CC(=O)N[C@H](Cc1ccc2ccccc2c1)C(=O)N[C@H](Cc1ccc(Cl)cc1)C(=O)N[C@H](Cc1cccnc1)C(=O)N[C@@H](CO)C(=O)N[C@@H](CCCNC(=O)c1cnccn1)C(=O)N[C@H](CCCNC(=O)c1ccc(N)nc1)C(=O)N[C@@H](CC(C)C)C(=O)N[C@@H](CCCN=C(N)N)C(=O)N1CCC[C@H]1C(=O)N[C@H](C)C(=O)O
Ratio (Rattus norvegicus [10]): 4

CC(=O)N[C@H](Cc1ccc2ccccc2c1)C(=O)N[C@H](Cc1ccc(Cl)cc1)C(=O)N[C@H](Cc1cccnc1)C(=O)N[C@@H](CO)C(=O)N[C@@H](CCCCNC(=O)c1cccnc1)C(=O)N[C@H](CCCCNC(=O)c1cccnc1)C(=O)N[C@@H](CC(C)C)C(=O)N[C@@H](CCCCN)C(=O)N1CCC[C@H]1C(=O)N[C@H](C)C(=O)O
ED50 (Rattus norvegicus [2]): > 300 µg/mL
Ratio (Rattus norvegicus [11]): 9
Ratio (Rattus norvegicus [12]): 0

CC(=O)N[C@H](Cc1ccc2ccccc2c1)C(=O)N[C@H](Cc1ccc(Cl)cc1)C(=O)N[C@H](Cc1cccnc1)C(=O)N[C@@H](CO)C(=O)N[C@@H](CCCCNC(=O)c1ccccn1)C(=O)N[C@H](CCCCNC(=O)c1ccccn1)C(=O)N[C@@H](CC(C)C)C(=O)N[C@@H](CCCCN)C(=O)N1CCC[C@H]1C(=O)N[C@H](C)C(=O)O
ED50 (Rattus norvegicus [2]): 93 µg/mL (≈ 60 µM)
Ratio (Rattus norvegicus [13]): 6
Ratio (Rattus norvegicus [14]): 0

CC(=O)N[C@H](Cc1ccc2ccccc2c1)C(=O)N[C@H](Cc1ccc(Cl)cc1)C(=O)N[C@H](Cc1cccnc1)C(=O)N[C@@H](CO)C(=O)N[C@@H](CCCCNC(=O)c1cnccn1)C(=O)N[C@H](CCCCNC(=O)c1ccccn1)C(=O)N[C@@H](CC(C)C)C(=O)N[C@@H](CCCCN)C(=O)N1CCC[C@H]1C(=O)N[C@H](C)C(=O)O
Ratio (Rattus norvegicus [15]): 3

CC(=O)N[C@H](Cc1ccc2ccccc2c1)C(=O)N[C@H](Cc1ccc(Cl)cc1)C(=O)N[C@H](Cc1cccnc1)C(=O)N[C@@H](CO)C(=O)N[C@@H](CCCCNC(=O)c1ccccn1)C(=O)N[C@H](CCCCNC(=O)c1ccc(N)nc1)C(=O)N[C@@H](CC(C)C)C(=O)N[C@@H](CCCN=C(N)N)C(=O)N1CCC[C@H]1C(=O)N[C@H](C)C(=O)O
ED50 (Rattus norvegicus [2]): 8 µg/mL (≈ 5.02 µM)
Ratio (Rattus norvegicus [16]): 2
Ratio (Rattus norvegicus [17]): 2
Ratio (Rattus norvegicus [5]): 0
